Source: patent US10624852B2, “Liposomes comprising a calcium phosphate-containing precipitate” (The University of North Carolina at Chapel Hill, priority 2009, dated 2020)
Non-standard residues stand in square brackets, D forms with d. No end group written: not given here. pY = N[C@@H](Cc1ccc(OP(=O)(O)O)cc1)C(=O)O

Key:
[1] = Trapping / encapsulation efficiency; assay type: physicochemical; details: cargo encapsulated in LCP-II
Protocol: To […] calculate the trapping efficiency of siRNA in the LCP nanoparticles, the anti-luciferase siRNA was replaced with a carboxyfluoroscein (FAM)-labeled siRNA having the same sequence (Dharmacon Inc, Lafayette, Colo.). The FAM-labeled siRNA LCP nano-particles were dissolved in lysis buffer (2 mM EDTA and 0.05% Trixton-100 in pH 7.8 Tris buffer) for quantitative analysis of the siRNA encapsulation efficiency. Standard siRNA solutions were prepared by diluting the FAM-labeled siRNA in the same lysis buffer. Then, 100 μl of the standard siRNA solution or the LCP solution was added to a 96-well plate and the fluorescence intensity was measured at 525 nm with a plate reader (Plate Chameleon Multilabel Detection Platform, Bioscan Inc., Washington D.C.). The amount of entrapped siRNA in the LCP nanoparticles was calculated based on the standard calibration curve.

H-460 cells = test: Calcium release in live cells (Fura-2 imaging); assay type: cell-based, human; details: 20 μM cytochalasin D, cells with LCP nanoparticles
Protocol: Two μl of 2 mM Fura-2 AM and 2 μl of 20% Pluronic-127 were mixed for 5 min and added to 1 ml phenol red free DMEM cell culture medium before use. About 5×10^4 H-460 cells were incubated in a Lab-Tek 8-well glass chamber slide system (Fisher, Pittsburgh, Pa.) for 24 h. Two hundred μl of a 2 μM Fura-2 AM solution was added to the cell culture chamber, followed by a 50 min incubation. After washing two times with PBS, the cells were incubated in phenol red-free DMEM cell culture medium and imaged with a Nikon TE2000U microscope and OrcaER camera. Emission was monitored at 510 nm with an alternating excitation wavelength of 340 nm and 380 nm from a Xenon light source. After adding 50 μl of LCP nanoparticles, fluorescence image was obtained by setting the excitation wavelength at 340 nm for green color and 380 nm for red color. The ratio of 340 nm/380 nm was proportional to the intracellular free Ca^2+ concentration (Hirst et al. (1999) Methods Mol Biol 114:31-39). All experiments were performed at room temperature.
To study the inhibition of endocytosis, 20 mM cytochalasin D was prepared in DMSO solution and freshly diluted 1,000 times by phenol red-free DMEM medium for use. After incubating with Fura-2 AM for 60 min and 20 μM cytochalasin D for 5 min, cells were imaged as described in the presence of LCP nanoparticles.

Row | Compound | trapping efficiency in LCP-II nanoparticles [1] | effect on LCP-induced color change (endocytosis inhibition) (H-460 cells)
1 | O=C([O-])c1ccccc1-c1c2ccc(=O)cc-2oc2cc([O-])ccc12.[Na+].[Na+] [sodium fluorescein, reference compound] | about 40% | –
2 | Nc1ccn(C2OC(COP(=O)(O)O)[C@H](O)C2(F)F)c(=O)n1 (some centres unmarked) [gemcitabine monophosphate, Gemcitabine monophosphate] | ~88% | –
3 | Nc1ccn([C@@H]2O[C@H](COP(=O)(O)O)[C@@H](O)[C@@H]2O)c(=O)n1 [AraC monophosphate] | about 94% | –
4 | C=C1[C@@H](C)[C@H]2[C@H](Cc3ccccc3)NC(=O)[C@]23[C@H](OC(C)=O)/C=C/[C@@](C)(O)C(=O)[C@@H](C)C/C=C/[C@H]3[C@@H]1O [cytochalasin D] | – | significantly reduced the color change
5 | EEEEpYFELV (EEEE[pY]FELV) [peptide wherein the tyrosine (Y) is phosphorylated] | ~82% | –
